Test results taken from US20100267561A1, “HERBICIDAL PYRIDAZINONE DERIVATIVES” (priority 2007, published 2010).

Legend:
Test in all cases: Test B pre-/postemergence plant response
Format in all cases: in vivo
[1] = tested on: yellow nutsedge (Cyperus esculentus)
Summary of the method: (§1)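 Visual scoring from 0 (no effect) to 100 (complete control) against untreated controls was done 13 to 15 days after greenhouse treatment. Chemicals were formulated in a surfactant-containing non-phytotoxic solvent and applied to soil preemergence or to 1- to 4-leaf (2-18 cm) plants postemergence.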

[2] = tested on: large crabgrass (Digitaria sanguinalis)
Summary of the method: as §1

[3] = tested on: catchweed bedstraw (Galium aparine); details: Preemergence
Summary of the method: as §1

kochia (Kochia scoparia) = tested on: kochia (Kochia scoparia)
Summary of the method: as §1

[4] = tested on: goosegrass (Eleusine indica)
Summary of the method: as §1

wild oat (Avena fatua) = tested on: wild oat (Avena fatua)
Summary of the method: as §1

[5] = tested on: cocklebur (Xanthium strumarium)
Summary of the method: as §1

[6] = tested on: common ragweed (Ambrosia elation)
Summary of the method: as §1

[7] = tested on: velvetleaf (Abutilon theophrasti)
Summary of the method: as §1

[8] = tested on: johnsongrass (Sorghum halepense)
Summary of the method: as §1

corn (Zea mays) = tested on: corn (Zea mays)
Summary of the method: as §1

[9] = tested on: woolly cupgrass (Eriochloa villosa)
Summary of the method: as §1

[10] = tested on: blackgrass (Alopecurus myosuroides)
Summary of the method: as §1

[11] = Postemergence, 31 g ai/ha, scale 0 to 100, 0 no effect, 100 complete control
[12] = Postemergence, 62 g ai/ha, scale 0 to 100
[13] = Postemergence, 125 g ai/ha, scale 0 to 100
[14] = Postemergence, 250 g ai/ha, scale 0 to 100
[15] = Preemergence, 31 g ai/ha, 0 to 100 scale, 0 no effect, 100 complete control
[16] = Preemergence, 62 g ai/ha, scale 0 to 100
[17] = Preemergence, 125 g ai/ha, scale 0 to 100
[18] = Preemergence, 250 g ai/ha, scale 0 to 100

## Cc1cc(-c2ccc(Br)cc2)nn1-c1c(O)cnn(C)c1=O [Compound 4]
[1]; [11]
  Plant response rating, Nutsedge, Yellow: 0
[1]; [12]
  Plant response rating, Nutsedge, Yellow: 0
[1]; [13]
  Plant response rating, Nutsedge, Yellow: 0
[1]; [14]
  Plant response rating, Nutsedge, Yellow: 0
[1]; [15]
  Plant response rating, Nutsedge, Yellow: 0
[1]; [16]
  Plant response rating, Nutsedge, Yellow: 0
[1]; [17]
  Plant response rating, Nutsedge, Yellow: 0
[2]; [11]
  Plant response rating, Crabgrass, Large: 100
[2]; [12]
  Plant response rating, Crabgrass, Large: 100
[2]; [13]
  Plant response rating, Crabgrass, Large: 100
[2]; [14]
  Plant response rating, Crabgrass, Large: 100
[2]; [15]
  Plant response rating, Crabgrass, Large: 100
[2]; [16]
  Plant response rating, Crabgrass, Large: 100
[2]; [17]
  Plant response rating, Crabgrass, Large: 100
[2]; [18]
  Plant response rating, Crabgrass, Large: 100
[3]; 31 g ai/ha, 0 to 100 scale, 0 no effect, 100 complete control
  Plant response rating, Galium: 0
[3]; 62 g ai/ha, scale 0 to 100
  Plant response rating, Galium: 0
[3]; 125 g ai/ha, scale 0 to 100
  Plant response rating, Galium: 85
[3]; 250 g ai/ha, scale 0 to 100
  Plant response rating, Galium: 90
Kochia (Kochia scoparia); [11]
  Plant response rating, Kochia: 0
Kochia (Kochia scoparia); [12]
  Plant response rating, Kochia: 0
Kochia (Kochia scoparia); [13]
  Plant response rating, Kochia: 60
Kochia (Kochia scoparia); [14]
  Plant response rating, Kochia: 70
Kochia (Kochia scoparia); [15]
  Plant response rating, Kochia: 0
Kochia (Kochia scoparia); [17]
  Plant response rating, Kochia: 0
Kochia (Kochia scoparia); [18]
  Plant response rating, Kochia: 0
[4]; [11]
  Plant response rating, Goosegrass: 95
[4]; [12]
  Plant response rating, Goosegrass: 100
[4]; [13]
  Plant response rating, Goosegrass: 100
[4]; [14]
  Plant response rating, Goosegrass: 100
[4]; [15]
  Plant response rating, Goosegrass: 85
[4]; [16]
  Plant response rating, Goosegrass: 100
[4]; [17]
  Plant response rating, Goosegrass: 100
[4]; [18]
  Plant response rating, Goosegrass: 100
Wild oat (Avena fatua); [11]
  Plant response rating, Oat, Wild: 98
Wild oat (Avena fatua); [12]
  Plant response rating, Oat, Wild: 100
Wild oat (Avena fatua); [13]
  Plant response rating, Oat, Wild: 100
Wild oat (Avena fatua); [14]
  Plant response rating, Oat, Wild: 100
Wild oat (Avena fatua); [15]
  Plant response rating, Oat, Wild: 65
Wild oat (Avena fatua); [16]
  Plant response rating, Oat, Wild: 70
Wild oat (Avena fatua); [17]
  Plant response rating, Oat, Wild: 85
Wild oat (Avena fatua); [18]
  Plant response rating, Oat, Wild: 95
[5]; [11]
  Plant response rating, Cocklebur: 0
[5]; [12]
  Plant response rating, Cocklebur: 0
[5]; [13]
  Plant response rating, Cocklebur: 0
[5]; [14]
  Plant response rating, Cocklebur: 0
[5]; [15]
  Plant response rating, Cocklebur: 0
[5]; [16]
  Plant response rating, Cocklebur: 0
[5]; [17]
  Plant response rating, Cocklebur: 0
[5]; [18]
  Plant response rating, Cocklebur: 30
[6]; [11]
  Plant response rating, Ragweed: 0
[6]; [12]
  Plant response rating, Ragweed: 0
[6]; [13]
  Plant response rating, Ragweed: 50
[6]; [14]
  Plant response rating, Ragweed: 80
[6]; [15]
  Plant response rating, Ragweed: 0
[6]; [16]
  Plant response rating, Ragweed: 0
[6]; [17]
  Plant response rating, Ragweed: 0
[6]; [18]
  Plant response rating, Ragweed: 0
[7]; [11]
  Plant response rating, Velvetleaf: 5
[7]; [12]
  Plant response rating, Velvetleaf: 5
[7]; [13]
  Plant response rating, Velvetleaf: 20
[7]; [14]
  Plant response rating, Velvetleaf: 45
[7]; [15]
  Plant response rating, Velvetleaf: 0
[7]; [16]
  Plant response rating, Velvetleaf: 0
[7]; [17]
  Plant response rating, Velvetleaf: 40
[7]; [18]
  Plant response rating, Velvetleaf: 50
[8]; [11]
  Plant response rating, Johnsongrass: 80
[8]; [13]
  Plant response rating, Johnsongrass: 100
[8]; [15]
  Plant response rating, Johnsongrass: 0
[8]; [16]
  Plant response rating, Johnsongrass: 30
[8]; [17]
  Plant response rating, Johnsongrass: 100
[8]; [18]
  Plant response rating, Johnsongrass: 100
Corn (Zea mays); [11]
  Plant response rating, Corn: 90
Corn (Zea mays); [12]
  Plant response rating, Corn: 95
Corn (Zea mays); [13]
  Plant response rating, Corn: 100
Corn (Zea mays); [14]
  Plant response rating, Corn: 100
Corn (Zea mays); [15]
  Plant response rating, Corn: 85
Corn (Zea mays); [16]
  Plant response rating, Corn: 95
Corn (Zea mays); [17]
  Plant response rating, Corn: 98
Corn (Zea mays); [18]
  Plant response rating, Corn: 100
[9]; [11]
  Plant response rating, Cupgrass, Woolly: 100
[9]; [12]
  Plant response rating, Cupgrass, Woolly: 100
[9]; [13]
  Plant response rating, Cupgrass, Woolly: 100
[9]; [14]
  Plant response rating, Cupgrass, Woolly: 100
[9]; [15]
  Plant response rating, Cupgrass, Woolly: 85
[9]; [16]
  Plant response rating, Cupgrass, Woolly: 85
[9]; [17]
  Plant response rating, Cupgrass, Woolly: 100
[9]; [18]
  Plant response rating, Cupgrass, Woolly: 100
[10]; 250 g ai/ha, preemergence, 0-100 scale
  Blackgrass plant response rating: 100
[10]; [11]
  Plant response rating, Blackgrass: 90
[10]; [12]
  Plant response rating, Blackgrass: 100
[10]; [13]
  Plant response rating, Blackgrass: 100
[10]; [14]
  Plant response rating, Blackgrass: 100
[10]; [15]
  Plant response rating, Blackgrass: 100
[10]; [16]
  Plant response rating, Blackgrass: 100
[10]; [17]
  Plant response rating, Blackgrass: 100
